According to patent US7939639B2, “Functional role of adrenomedullin (AM) and the gene related product (PAMP) in human pathology and physiology” (The United States of America as represented by the …, priority 1995, dated 2011):
Several values for one entry are separate records, joined by “and”; a condition that tells them apart may be missing. Equal values may be shown once. Entries after “also recorded” stand apart in the source; their conditions may differ.

Legend:
C. albicans [1] = experiment: Germination assay, C. albicans; type: cell-based, Candida albicans
Experimental: Data were compiled from 11 experiments. Germination was determined by incubating colonies of C. albicans that were harvested from an overnight growth on SDA and suspended on RPMI-1640 containing concentrations of AM from 8 to 85 μM. Organisms were incubated at 37° C. and germination was measured at 2 h and 4 h by reading 100 to 200 organisms per concentration per time point in each experiment. Percent germination was assessed as the proportion of blastoconidia of C. albicans bearing the characteristic parallel-walled tubular element to the total number of blastoconidia.

Isoelectric point = type: physicochemical
MCF-7 [2] = experiment: MTT growth assay, MCF-7; type: cell-based, human
Experimental: i. Growth Assays: MTT techniques were performed as previously described (Nakanishi, Y. F., et al., Exper. Cell Biol. 56:74-85 (1988)). In brief, a single cell suspension of 2×10^5 cells/ml (50 μl/well) is seeded into 96-well PVC plates and an appropriate concentration of MoAb-G6 and AM was added in a volume of 50 μl. The assay is performed in TIS medium (RMPI 1640 plus 10 μg/ml transferrin, 10 μg/ml insulin and 3×10^−8M sodium selenite). After 5 days growth at 37° C., 5% CO2, in a humid incubator, the dye and solubilization solutions were added from the Promega Proliferation Assay (Madison, Wis.), which is a variation of the MTT assay (Carmichael, Y. F., et al., Cancer Res. 47:943-946 (1987)). The Biorad Microplate Manager plate reader and software was used to determine the change in number of viable cells from dye reduction measured by absorbance at 570 nm.

rat isolated islets = experiment: cAMP content of rat isolated islets (RIA); type: cell-based; conditions: after addition of AM
Experimental: Dose-dependent increase of intracellular cAMP in the islets following addition of AM. Islets from six rats were isolated following well-established protocols (Gray, et al., Diabetes 33, 1055 (1984)). Assays were performed in 24-well plates (90 islets per well). After a 45 min incubation in […] medium containing 5.6 mM glucose, a second incubation in RPMI containing 20.6 mM glucose and the proper concentration of AM and/or the antibody was performed. Supernatants from both incubations were tested by radioimmunoassay (RIA) for insulin (Amersham, Arlington Heights, Ill.). The ratio between the insulin concentration found in the high glucose supernatant and the insulin measured in the low glucose solution is represented in ordinates. After collecting the medium, the islets from the same experiments were saved for analysis of cAMP contents (Korman, et al., Cancer Res. 46, 1214 (1986)). Islets were extracted in 50% ethanol and centrifuged, and the supernatants were tested for cAMP using a RIA kit (New England Nuclear, Boston, Mass.) following manufacturer's instructions. The experiments were repeated three times and a representative example shown. Data are means±standard deviations of two wells.

[3] = Oral glucose tolerance test in nonanesthetized rats; type: in vivo, Sprague-Dawley rats
Experimental: Glucose tolerance tests were performed on Sprague-Dawley rats (250 to 300 g) in the presence (◯) or absence (●) of AM. […] Glucose tolerance methods have been published previously (Brown, et al., Proc. Soc. Exp. Biol. Med. 150, 557 (1975)). Six rats were administered a glucose solution (400 mg/100 g body weight) via gastric intubation. Ocular blood samples were collected at intervals following glucose loading, and glucose concentration was determined by a calorimetric assay (Sigma). Blood insulin levels were determined on the same samples by radioimmunoassay (Amersham). Three days later, the same rats received 1 μL, of AM (60 μM) per g body weight through intravenous injection and tolerance tests were repeated. Data are means±standard deviations for the six animals. Two-tailed Student's test was performed to determine statistical significance. (*) indicates statistical significance (p<0.01).

C. albicans [4] = experiment: Micro-/macrodilutional assay, C. albicans; type: cell-based, Candida albicans
Experimental: Inhibition of growth of E. coli was assessed in a microdilutional timed kill assay. (See FIG. 22) Bacteria and Candida albicans were grown overnight on trypticase soy agar (TSA) and Sobouraud dextrose agar (SDA) plates, respectively, were suspended into RPMI-1640 medium (Bio-Whittaker) and adjusted to a final concentration of 8×10^3 cfu/ml in […] in plastic microdilution trays. […] Plates were incubated at 37° C. with gentle agitation over 24 hours. At 6 hr and 24 hr time points, 10 to […] aliquots from each well were quantitatively cultured by serial 100-fold dilutions onto TSA and SDA plates.
(§1) Data were compiled from six experiments. Macrodilution assays were performed in 12×75 mm borosilicate glass tubes. Organisms were grown and harvested, as described in Roilides, E., et al., J Infect Dis. 163:579 (1991), and adjusted to a final inoculum concentration of 8×10^3 cfu/ml in 400 μl. […] Tubes were incubated at 37° C. with gentle agitation over 24 hours. At 6 and 24 hour time points, 100 μl aliquots from each tube were quantitatively cultured by serial 100-fold dilutions onto TSA and SDA plates.

MCF-7 [5] = experiment: Soft agar clonal growth assay, MCF-7; type: cell-based, human; conditions: exogenous AM
E. coli [6] = experiment: Macrodilution assay, E. coli; type: cell-based, Escherichia coli; conditions: E. coli
Experimental: as §1

E. coli [7] = experiment: Microdilutional timed kill assay, E. coli; type: cell-based, Escherichia coli
Experimental: Inhibition of growth of E. coli was assessed in a microdilutional timed kill assay. (See FIG. 22) Bacteria and Candida albicans were grown overnight on trypticase soy agar (TSA) and Sobouraud dextrose agar (SDA) plates, respectively, were suspended into RPMI-1640 medium (Bio-Whittaker) and adjusted to a final concentration of 8×10^3 cfu/ml in […] in plastic microdilution trays. AM-related peptides, magainins, and albumin were added in equimolar concentrations ranging from 8 μM to 300 μM. Plates were incubated at 37° C. with gentle agitation over 24 hours. At 6 hr and 24 hr time points, 10 to […] aliquots from each well were quantitatively cultured by serial 100-fold dilutions onto TSA and SDA plates.

AM receptor = experiment: cAMP assay (RIA), MCF-7; type: cell-based, human
Experimental: k. cAMP Assays: Cyclic AMP was assayed by RIA using a kit obtained from New England Nuclear (Boston, Mass.). […] The supernatants were tested for cAMP using the RIA kit following the manufacturer's instructions.

CC[C@H](C)[C@H](NC(=O)[C@H](CCC(N)=O)NC(=O)[C@H](Cc1c[nH]cn1)NC(=O)[C@H](C)NC(=O)[C@H](CC(C)C)NC(=O)[C@H](CCCCN)NC(=O)[C@H](CCC(N)=O)NC(=O)[C@@H](NC(=O)[C@@H](NC(=O)[C@@H]1CSSC[C@H](NC(=O)CNC(=O)[C@H](Cc2ccccc2)NC(=O)[C@H](CO)NC(=O)[C@H](CCCNC(=N)N)NC(=O)[C@H](CC(C)C)NC(=O)CNC(=O)[C@H](CCC(N)=O)NC(=O)[C@H](Cc2ccccc2)NC(=O)[C@H](CC(N)=O)NC(=O)[C@H](CC(N)=O)NC(=O)[C@H](CCSC)NC(=O)[C@H](CO)NC(=O)[C@H](CCC(N)=O)NC(=O)[C@H](CCCNC(=N)N)NC(=O)[C@@H](N)Cc2ccc(O)cc2)C(=O)N[C@@H](CCCNC(=N)N)C(=O)N[C@@H](Cc2ccccc2)C(=O)NCC(=O)N[C@@H]([C@@H](C)O)C(=O)N1)[C@@H](C)O)C(C)C)C(=O)N[C@@H](Cc1ccc(O)cc1)C(=O)N[C@@H](CCC(N)=O)C(=O)N[C@@H](Cc1ccccc1)C(=O)N[C@H](C(=O)N[C@@H](CC(=O)O)C(=O)N[C@@H](CCCCN)C(=O)N[C@@H](CC(=O)O)C(=O)N[C@@H](CCCCN)C(=O)N[C@@H](CC(=O)O)C(=O)N[C@@H](CC(N)=O)C(=O)N[C@H](C(=O)N[C@@H](C)C(=O)N1CCC[C@H]1C(=O)N[C@@H](CCCNC(=N)N)C(=O)N[C@@H](CO)C(=O)N[C@@H](CCCCN)C(=O)N[C@H](C(=O)N[C@@H](CO)C(=O)N1CCC[C@H]1C(=O)N[C@@H](CCC(N)=O)C(=O)NCC(=O)N[C@@H](Cc1ccc(O)cc1)C(N)=O)[C@@H](C)CC)C(C)C)[C@@H](C)O [AM]
suppression of germination of C. albicans, 2 hours (C. albicans [1]; 2 hours incubation): non-significant trend in the suppression of germination; also recorded: not significant | inhibition of germination of C. albicans, 4 hours (C. albicans [1]; increasing concentrations of AM (8 to 85 μM), 4 hours incubation): significant inhibition of germination | isoelectric point (Isoelectric point): 9.7 and 10.2 | growth suppression by synthetic AM alone (MCF-7 [2]; AM 10 μM (FIG. 12B)): ≈ 10% | reversal of MoAb-G6 growth inhibition by exogenous AM (MCF-7 [2]; MCF-7): abrogated | cAMP levels in the islets (rat isolated islets): Elevating levels of cAMP; also recorded: cAMP levels increased | insulin levels versus control ([3]; 20 min after intravenous injection of AM): Significant differences | duration of block of insulin secretion ([3]; after intravenous injection of AM (1 μL of 60 μM per g body weight)): at least 20 min | levels of circulating glucose versus control ([3]; after intravenous injection of AM, 1 h): significantly higher; also recorded: highly significant | EC50 (rat mast cells): 7.9 ± 3.9 µM | antimicrobial effect against C. albicans (C. albicans [4]): 73%±8.1 | activity against C. albicans (C. albicans [4]; after 6 hours of incubation): activity | clonal growth in soft agar (MCF-7 [5]): elevated clonal growth | antimicrobial activity, macrodilution, 6 hours (E. coli [6]; 6 hours incubation): no activity | antimicrobial activity, macrodilution, 24 hours (E. coli [6]; 24 hours incubation): somewhat more active than PAMP; also recorded: slightly more active than PAMP | activity against E. coli (E. coli [7]; after 6 hours of incubation): activity | growth inhibitory activity against E. coli, comparative (E. coli [7]; microdilution, 6 hours, FIG. 22): higher growth inhibitory activity than albumin | effect on cAMP (AM receptor; MCF-7): activated; also recorded: rapid increase in cellular cAMP | maximum elevation of cellular cAMP (AM receptor; relative to normal control): three times that of the normal control
